The results in this text go back to publication PMC12169749, “Isolation, biochemical characterization, and primary structure and active site determination of Dioscorea opposita (‘Nagaimo’) oligopeptidase B” (Biochemistry and Biophysics Reports, 2025).

Numbered stars: 1 amine (or outer) side, 2 acyl side, 3 side chain; on linkers, the order of the positions; unused ones are H or OH. Peptide text beside a SMILES is read from it. * marks the point of attachment. AMC = Cc1cc(=O)oc2cc(N*)ccc12; Cbz = O=C(OCc1ccccc1)*; Boc = CC(C)(C)OC(=O)*; CO = O=C([*:1])[*:2]

One experiment has as its system T1, oligopeptidase B (OPB); Nagaimo protease.
T1 construct: native, purified from tubers; monomer, 75 kDa by gel filtration, 81 kDa by reducing SDS-PAGE; internal tryptic peptide SAGGLLMGAVLNMR
Kind of experiment: fluorometric AMC release, Lineweaver-Burk. Type of experiment: biochemical, Dioscorea polystachya. As to conditions: Tris-HCl pH 8.0, 37 °C. The source says: fluorometric AMC release, Lineweaver-Burk on oligopeptidase B (OPB); Nagaimo protease
As for `Cc1cc(=O)oc2cc(NC(=O)[C@H](CCCCN)NC(=O)[C@H](CC(C)C)NC(=O)[C@@H](NC(=O)OC(C)(C)C)C(C)C)ccc12` [Boc-Val-Leu-Lys-MCA] (Boc-Val-Leu-Lys-{AMC}), the Km was found to be 10 µM.

As to `Cc1cc(=O)oc2cc(NC(=O)[C@H](CCCNC(=N)N)NC(=O)[C@H](Cc3ccccc3)NC(=O)[C@@H]3CCCN3)ccc12` [Pro-Phe-Arg-MCA] (H-Pro-Phe-Arg-{AMC}), the Michaelis constant (Km) came out at 10 µM. With `Cc1cc(=O)oc2cc(NC(=O)[C@H](CCCCN)NC(=O)[C@H](CCCCN)NC(=O)[C@H](CCC(=O)O)NC(=O)OC(C)(C)C)ccc12` [Boc-Glu-Lys-Lys-MCA] (Boc-Glu-Lys-Lys-{AMC}), the Km amounted to 5 µM. Same read-out and setting: the figure for `Cc1cc(=O)oc2cc(NC(=O)[C@H](CCCNC(=N)N)NC(=O)[C@@H](NC(=O)[C@@H](NC(=O)OCc3ccccc3)C(C)C)C(C)C)ccc12` [Z-Val-Val-Arg-MCA] (Cbz-Val-Val-Arg-{AMC}) is 10 µM; for `Cc1cc(=O)oc2cc(NC(=O)[C@H](CCCNC(=N)N)NC(=O)c3ccccc3)ccc12` [Bz-Arg-MCA] it is 10 µM. `Cc1cc(=O)oc2cc(NC(=O)[C@@H](N)CCCNC(=N)N)ccc12` [Arg-MCA]: the Km is 17.9 µM. In the case of `Cc1cc(=O)oc2cc(NC(=O)[C@H](CCCNC(=N)N)NC(=O)[C@@H]3CCCN3C(=O)[C@@H](NC(=O)OC(C)(C)C)C(C)C)ccc12` [Boc-Val-Pro-Arg-MCA] (Boc-Val-Pro-Arg-{AMC}), the Michaelis constant (Km) is 12.5 µM. With `Cc1cc(=O)oc2cc(NC(=O)[C@H](CCCNC(=N)N)NC(=O)[C@@H]3CCCN3C(=O)CNC(=O)OCc3ccccc3)ccc12` [Z-Gly-Pro-Arg-MCA] (Cbz-Gly-Pro-Arg-{AMC}), the Km came to 11.8 µM. With `Cc1cc(=O)oc2cc(NC(=O)[C@H](CCCNC(=N)N)NC(=O)[C@H](CCCNC(=N)N)NC(=O)OCc3ccccc3)ccc12` [Z-Arg-Arg-MCA] (Cbz-Arg-Arg-{AMC}), the Michaelis-Menten constant (Km) worked out at 10 µM. With `Cc1cc(=O)oc2cc(NC(=O)[C@H](CCCNC(=N)N)NC(=O)[C@H](Cc3ccccc3)NC(=O)OCc3ccccc3)ccc12` [Z-Phe-Arg-MCA] (Cbz-Phe-Arg-{AMC}), the Michaelis-Menten constant (Km) stood at 11 µM. In the case of `Cc1cc(=O)oc2cc(NC(=O)[C@H](CCCNC(=N)N)NC(=O)[C@H](CC(C)C)NC(=O)OCc3ccccc3)ccc12` [Z-Leu-Arg-MCA], the Km is 12.5 µM. On the same count and under the same terms, the value for `Cc1cc(=O)oc2cc(NC(=O)[C@H](CCCNC(=N)N)NC(=O)[C@H](CCCNC(=N)N)NC(=O)[C@H](CCC(N)=O)NC(=O)OC(C)(C)C)ccc12` [Boc-Gln-Arg-Arg-MCA] (Boc-Gln-Arg-Arg-{AMC}) was 15 µM.

Another experiment deals with T1, oligopeptidase B (OPB); Nagaimo protease. In words: fluorometric AMC release, inhibitor titration. In kind it is biochemical, Dioscorea polystachya. As to conditions: 100 μM Bz-Arg-MCA, 50 mM Tris-HCl pH 8.0, 10 min preincubation at 23 °C, assay 37 °C. The source says: fluorometric AMC release, inhibitor titration on oligopeptidase B (OPB); Nagaimo protease
Take `CC(=O)N[C@@H](CC(C)C)C(=O)N[C@@H](CC(C)C)C(=O)N[C@H](C=O)CCCNC(=N)N` [Leupeptin]: the IC50 worked out at 120 nM. The same measure, in the same setting: the value for `CC(C)[C@H](NC(=O)[C@H](CCCNC(=N)N)NC(=O)N[C@@H](Cc1ccccc1)C(=O)O)C(=O)N[C@H](C=O)CCCNC(=N)N` [Antipain] ({Phe-CO}-Arg-Val-Arg-aldehyde) was 210 nM.

The same experiment, now with this note: 100 μM Bz-Arg-MCA, 50 mM Tris-HCl pH 8.0, 10 min preincubation at 23 °C, assay 37 °C; covalent.
In turn, `NCCc1ccc(S(=O)(=O)F)cc1` [AEBSF, 4-(2-aminoethyl)-benzenesulfonyl fluoride] came in with an IC50 of 700 nM. Same read-out and setting: the value for `Cc1ccc(S(=O)(=O)N[C@@H](CCCCN)C(=O)CCl)cc1` [TLCK] was 70 nM; that for `O=c1oc(Cl)c(Cl)c2ccccc12` [DCI, 3,4-dichloroisocoumarin] was 30000 nM.

Still in this experiment, the particulars now being: 100 μM Bz-Arg-MCA, 50 mM Tris-HCl pH 8.0, 10 min preincubation at 23 °C, assay 37 °C; covalent, cysteine-directed.
The compound `CCN1C(=O)C=CC1=O` [NEM, N-ethylmaleimide] had an IC50 of 880000 nM.

For orientation: Km means the substrate concentration at which the rate is half of its maximum. What is called IC50 is the concentration at which inhibition is half-maximal. Low readings indicate higher potency, high ones lower potency.
